Experimental data taken from patent publication US20230287416A1, “COMBINATORY TREATMENT OF SMA WITH SARNA AND MRNA MODULATORS” (RACTIGEN THERAPEUTICS, priority 2020, published 2023).

Tests used:
Type in all cases: cell-based, human
SMN protein [1] = assay: Western blotting of SMN protein in GM03813 cells; conditions: GM03813, 72 h
Procedure: (§1) To further verify the effect of ASO-10-27 and DS06-0004 alone or in combination on SMN2 gene expression, western blotting assays were performed in GM03813 cells transfected individually or in combination with ASO-10-27 and DS06-0004. […] DS06-0004 at 1 nM, 5 nM and 25 nM increased SMN2FL by 1.5-, 1.5- and 1.6-fold, respectively (FIGS. 7B and 7C).
(§2) SMA patient derived fibroblasts were obtained from Coriell Institute (Camden, N.J., USA), including GM00232 (SMA type I with 2 copies of SMN2 gene) and GM03813 (SMA type II with 3 copies of SMN2 gene). These cells were cultured at 5% C02 and 37° C. in modified MEM medium (Gibco, Thermo Fisher Scientific, Carlsbad, Calif.) supplemented with 15% bovine calf serum (Sigma-Aldrich), 1% NEAA (Gibco) and 1% penicillin/streptomycin (Gibco). To transfect oligonucleotides including saRNAs, siRNA and ASO, cells were seeded into 6-well plates at a density of 1×10^5 cells/well and were transfected with oligonucleotides at different concentrations using RNAiMax (Invitrogen, Carlsbad, Calif.) according to the reverse transfection protocol provided by the manufacturer for 72 hours (unless otherwise specified). For Risdiplam treatment of cells, Risdiplam (HY-109101, MedChem Express Company, Monmouth Junction, N.J., USA) dissolved in DMSO was added directly to cells at desired concentration for 72 hours unless specified otherwise.
(§3) Proteins were harvested from transfected cells using 1×RIPA Buffer including protease inhibitors and detected the protein concentration by BCA protein assay kits (Beyotime, P0010, China). To isolated proteins from animal tissues, tissues were harvested and lysed using 1×RIPA Buffer. Protein concentrations were measured by using BCA protein assay kits. Protein electrophoresis was performed (10 ug protein/well) with the use of a sodium dodecyl sulfate polyacrylamide gel electrophoresis (PAGE) gel, which was then transferred to a polyvinylidene difluoride (0.45 μm PVDF) membrane. The membranes were blotted with primary anti-SMN (CST, 19276, USA) or anti-α/β-Tubulin (CST, 2148s, USA) antibodies at 4° C. overnight. After three washes with TBST buffer, the membranes were incubated with anti-IgG, horseradish peroxidase-conjugated secondary antibodies (CST, 7074s and 7076s, USA) for 1 h at room temperature (RT). The membranes were then washed with TBST buffer three times for 10 min each and analyzed by Image Lab (BIO-RAD, Chemistry Doctm MP Imaging System). Band densities of SMN protein and α/β-Tubulin were quantified using ImageJ software.

SMN protein [2] = assay: Western blotting of SMN protein in GM00232 cells; conditions: GM00232, 72 h
Procedure: as §1, with “GM00232” for “GM03813”, “1.2, 1.3” for “1.5-, 1.5-”, “1.7 fold,” for “1.6-fold,”, “5B” for “7B”, “5C).” for “7C).”
as §2, §3

SMN2 mRNA = assay: RT-qPCR of SMN2FL and SMN2 Δ7 mRNA in GM03813 cells; conditions: for maximum increase of SMN2FL (ceiling effect): GM03813, 72 h (Example 1)
Source text: “GM03813 cells” refers to fibroblast cells provided by Coriell Institute for Medical Research. This cell line is described as SPINAL MUSCULAR ATROPHY, TYPE II; SMA2 SURVIVAL OF MOTOR NEURON 1, TELOMERIC; SMN1. The relevant gene is SMN1; the chromosomal location is 5q12.2-q13.3, the allelic variant is described as 1 exons 7 and 8 deleted, SPINAL MUSCULAR ATROPHY, TYPE I; and the identified mutation: is EX7-8DEL.
Seventy-two hours later, total cellular RNA was isolated from the treated cells and reverse transcribed into cDNA. SMN2 mRNA expression was assessed with RT-qPCR using primer pairs specific for SMN2FL or SMN2 Δ7. SMN2 mRNA expression was also assessed by semi-quantitative RT-PCR using a primer pair that amplifies both SMN2FL and SMN2 Δ7 followed by DdeI digestion (PCR/digestion). […] After digestion, both bands were reduced by 115 bp, resulting in two products: 392 bp (SMN2FL) and 338 bp (SMN2 Δ7) as shown on the gel of FIG. 3D. FIG. 3A-3D show dose-dependent changes in SMN2FL and SMNΔ7 mRNA as assessed by RT-qPCR and PCR/digestion respectively. FIG. 3E-3G are graphic plots of data from quantitating the intensity of bands in FIG. 3D.
as §2
For RNA isolation from cultured cells, total cellular RNA was isolated from treated cells using an RNeasy Plus Mini kit (Qiagen, Hilden, Germany) according to its manual. To isolated RNA from animal tissues, tissues were harvested and stored at RNA later (AM7021, Thermo Fisher). Total RNA was then isolated using MagPure Total RNA Micro LQ kit (Magen, R6621, China) by auto-pure96 machine (ALLSHENG, China). The resultant RNA (1 μg) was reverse transcribed into cDNA by using a PrimeScript RT kit containing gDNA Eraser (Takara, Shlga, Japan). The resultant cDNA was amplified in an ABI 7500 Fast Real-time PCR System (Applied Biosystems; Foster City, Calif.) using SYBR Premix Ex Taq 11 (Takara, Shlga, Japan) reagents and primers which specifically amplified full-length (SMN2FL) or A7 SMN2 mRNA (SMN2 Δ7) (FIG. 1). The reaction conditions were: 95° C. for 3 seconds (1 cycle) and 60° C. for 30 seconds (40 cycles). Amplification of TBP gene served as an internal control.

[3] = GM03813, 72 h, 100 nM (Example 1)
[4] = GM03813, 72 h, 1 nM (Example 4, FIG. 6A)
[5] = GM03813, 72 h, 1 nM (Example 8)
[6] = GM03813, 72 h, 1 nM to 50 nM (Example 1, FIG. 3B)
[7] = GM03813, 72 h, 5 nM (Example 4)
[8] = GM03813, 72 h, 5 nM (Example 8)
[9] = GM03813, 72 h, 25 nM (Example 4)
[10] = GM03813, 72 h, 25 nM (Example 8)
[11] = GM03813, 72 h, alone or in combination at 10 nM, RT-qPCR (Example 10, FIG. 12A)

For `Cc1cn2nc(-c3cc(=O)n4cc(N5CCNC6(CC6)C5)ccc4n3)cc(C)c2n1` [Risdiplam], the “SMN protein fold change” value (SMN protein [1]; 50 nM (Example 9, FIG. 11)) was 1.1 fold, the “SMN protein fold change” value (SMN protein [1]; 250 nM (Example 9)) was 1.7 fold and the “SMN protein fold change” value (SMN protein [2]; 50 nM (Example 7, FIG. 9)) was 1.7 fold. The “SMN protein fold change” value (SMN protein [2]; 250 nM (Example 7)) was 1.9 fold, the “SMN protein fold change” value (SMN protein [2]; 1250 nM (Example 7)) was 2.6 fold and the “maximum increase of SMN2FL (ceiling effect)” value (SMN2 mRNA) was ~2 fold. The “SMN2FL mRNA fold change” value (SMN2 mRNA; GM03813, 72 h, 50 nM (Example 8, FIG. 10A-10C)) was 1.0 fold, the “SMN2 Δ7 mRNA change” value (SMN2 mRNA; GM03813, 72 h, 50 nM, 250 nM and 1250 nM (Example 8)) was “decrease” and the “decrease of SMN2 Δ7 mRNA” value (SMN2 mRNA; [3]) was 36%. The “SMN2FL mRNA fold change” value (SMN2 mRNA; GM03813, 72 h, 100 nM (Example 1, FIG. 3C)) was 1.2 fold, the “SMN2FL mRNA fold change” value (SMN2 mRNA; GM03813, 72 h, 250 nM (Example 8)) was 1.4 fold and the “decrease of SMN2 Δ7 mRNA” value (SMN2 mRNA; GM03813, 72 h, 1000 nM (Example 1)) was 98%. For the same molecule, the “SMN2FL mRNA fold change” value (SMN2 mRNA; GM03813, 72 h, 1000 nM (Example 1, FIG. 3C)) was 1.8 fold and the “SMN2FL mRNA fold change” value (SMN2 mRNA; GM03813, 72 h, 1250 nM (Example 8)) was 2.1 fold.
In the case of “DS06-0004: saRNA targeting SMN2 promoter at -281; SEQ ID NO: 476/477 (Table 8: SEQ ID NO: 131/288) (chain 1 AGACGAGGCCUAAGCAACATT; chain 2 UGUUGCUUAGGCCUCGUCUTT; chemistry not given here)”, the “SMN protein fold change” value (SMN protein [1]; 1 nM (Example 5, FIG. 7)) is reported as 1.5 fold, the “SMN protein fold change” value (SMN protein [1]; 5 nM (Example 5)) is reported as 1.5 fold and the “SMN protein fold change” value (SMN protein [1]; 25 nM (Example 5)) is reported as 1.6 fold. For the same molecule, the “SMN protein fold change” value (SMN protein [2]; 1 nM (Example 3, FIG. 5)) was 1.2 fold, the “SMN protein fold change” value (SMN protein [2]; 5 nM (Example 3)) was 1.3 fold and the “SMN protein fold change” value (SMN protein [2]; 25 nM (Example 3)) was 1.7 fold. For the same molecule, the “SMN2 Δ7 mRNA fold change” value (SMN2 mRNA; GM03813, 72 h, 1 nM (Example 4)) was 2.5 fold, the “SMN2FL mRNA fold change” value (SMN2 mRNA; [4]) was 2.1 fold and the “SMN2FL mRNA fold change” value (SMN2 mRNA; [5]) was 1.7 fold. For the same molecule, the “SMN2 Δ7 mRNA fold change” value (SMN2 mRNA; [5]) was 1.8 fold, the “highest fold change of SMN2FL mRNA” value (SMN2 mRNA; [6]) was 2.9 fold and the “highest fold change of SMN2 Δ7 mRNA” value (SMN2 mRNA; [6]) was 2.7 fold. The “SMN2FL mRNA fold change” value (SMN2 mRNA; [7]) was 2.6 fold, the “SMN2 Δ7 mRNA fold change” value (SMN2 mRNA; [7]) was 2.5 fold and the “SMN2FL mRNA fold change” value (SMN2 mRNA; [8]) was 2.2 fold. For the same molecule, the “SMN2 Δ7 mRNA fold change” value (SMN2 mRNA; [8]) was 2.3 fold, the “SMN2FL mRNA fold change” value (SMN2 mRNA; [9]) was 2.2 fold and the “SMN2 Δ7 mRNA fold change” value (SMN2 mRNA; [9]) was 2.1 fold. For the same molecule, the “SMN2FL mRNA fold change” value (SMN2 mRNA; [10]) was 2.3 fold, the “SMN2 Δ7 mRNA fold change” value (SMN2 mRNA; [10]) was 2.3 fold and the “SMN2 mRNA expression” value (SMN2 mRNA; [3]) was “did not further increase”.
For Nusinersen [ASO-10-27], the “SMN protein fold change” value (SMN protein [1]; 1 nM (Example 5, FIG. 7)) was 1.2 fold, the “SMN protein fold change” value (SMN protein [1]; 5 nM (Example 5)) was 1.5 fold and the “SMN protein fold change” value (SMN protein [1]; 25 nM (Example 5)) was 1.9 fold. The “SMN protein fold change” value (SMN protein [1]; alone or in combination at 10 nM (Example 10, FIG. 12D-12E)) was 2.3 fold, the “SMN protein fold change” value (SMN protein [2]; 1 nM (Example 3, FIG. 5)) was 1.4 fold and the “SMN protein fold change” value (SMN protein [2]; 5 nM (Example 3)) was 2.3 fold. For the same molecule, the “SMN protein fold change” value (SMN protein [2]; 25 nM (Example 3)) was 2.9 fold, the “maximum increase of SMN2FL (ceiling effect)” value (SMN2 mRNA) was ~2 fold and the “SMN2FL mRNA fold change” value (SMN2 mRNA; GM03813, 72 h, 1 nM (Example 1, FIG. 3A)) was 1.5 fold. For the same molecule, the “SMN2FL mRNA fold change” value (SMN2 mRNA; [4]) was 1.2 fold, the “SMN2 Δ7 mRNA change” value (SMN2 mRNA; GM03813, 72 h, 1 nM, 5 nM and 25 nM (Example 4)) was “decrease” and the “SMN2 Δ7 mRNA change” value (SMN2 mRNA; GM03813, 72 h, 5 nM (Example 1)) was “decrease”. The “SMN2FL mRNA fold change” value (SMN2 mRNA; [7]) was 2.1 fold, the “SMN2FL mRNA fold change” value (SMN2 mRNA; GM03813, 72 h, 5 nM, peak increase (Example 1, FIG. 3A)) was 2.0 fold and the “SMN2FL mRNA fold change” value (SMN2 mRNA; [9]) was 2.1 fold. For the same molecule, the “SMN2FL mRNA fold change” value (SMN2 mRNA; [11]) was 1.4 fold and the “SMN2 Δ7 mRNA fold change” value (SMN2 mRNA; [11]) was 0.3 fold.
